{"source": "paper PMC10377753", "about": "“Pharmacokinetic and pharmacodynamic properties of polymyxin B in Escherichia coli and Klebsiella pneumoniae murine infection models” (Journal of Antimicrobial Chemotherapy, 2023)", "key": {"E. coli isolates": {"system": "E. coli isolates", "assay": "Dose-response study, thigh infection model, summary over E. coli isolates", "format": "in vivo, Escherichia coli", "experimental": "Experiments were carried out in the Erasmus Laboratory Animal Science Centre in Rotterdam, The Netherlands in accordance with the EU Animal Directive 2010/63/EU 2010 directive[14] (licence number AVD101002016702) as described before,[15] with approval of the institutional Animal Welfare Body. Outbred female CD-1 mice obtained from Charles River Germany, weighing 20–25 g, 7–8 weeks old, were used in the experiments. The mice were housed under standard conditions with drink and feed supplied ad libitum.\nMice were rendered neutropenic by intraperitoneal injection of cyclophosphamide of 150 and 100 mg/kg, 4 days and 1 day before infection, respectively. On the day of infection, an overnight culture of the bacteria was diluted in fresh CAMHB and incubated at 37°C for 1 or 2 h depending on the growth rate of the strain. After incubation the inoculum was diluted in CAMHB or saline for the thigh and lung infection model, respectively, in order to obtain approximately 5.0 × 10^7 cfu/mL. Mice were then infected intramuscularly in each thigh (thigh infection model) or intranasally under isoflurane anaesthesia (lung infection model), with 0.05 mL of inoculum containing approximately 2.5 × 10^6 bacteria. Analgesia was given in the form of buprenorphine directly after infection, every 12 h.\nFor dose–response studies, a 6 hourly dosing regimen of 1–32 mg/kg was studied in the thigh infection model. Mice were infected with E. coli […], 15, 51 or 71 or K. pneumoniae ATCC 43816, 17, 58 or 74.\nAnimals were humanely euthanized 24 h (t = 24 h) after the first dose, unless the welfare of the animals necessitated earlier termination, following animal welfare regulations. Excised thighs were transferred to a pre-cooled 14 mL polypropylene tube containing 2 mL of PBS and were homogenized using a T25 ULTRA-TURRAX (IKA-Werke GmbH & Co, Staufen, Germany). A 10-fold dilution series was prepared and 3 × 10 μL was plated per dilution. The following day, colonies were counted and the number of cfu per thigh was calculated.\nThe drug effect was determined by the difference between the log10 cfu values at t = 0 h (mean value of two mice) and t = 24 h (value of individual mice) expressed as Δlog10 cfu. The fAUC/MIC, fCmax/MIC and %fT>MIC were determined based on the simulated time–concentration profiles over 24 h as derived in MicLab 2.71 (MEDIMATICS, Maastricht, The Netherlands) using 200 points per dosing interval.\nA sigmoid maximum effect (Emax) model was fitted to the PK/PD index versus Δlog10 cfu data by non-linear regression, and static or a 1 log or 2 log kill effect were determined using GraphPad Prism 8.0 (GraphPad, Inc., San Diego, CA, USA). A two-tailed unpaired t-test was performed in GraphPad Prism 8.0 to determine if there was a significant difference in the fAUC/MIC targets correlating with a static or a 1 log or 2 log decline, between E. coli and K. pneumoniae isolates."}, "plasma proteins": {"system": "plasma proteins", "assay": "Plasma protein binding by ultrafiltration", "format": "in vitro ADME", "conditions": "plasma of infected mice treated with polymyxin B, corrected for non-specific binding, LC-MS/MS, mean ± SD, no concentration dependency", "experimental": "The binding of polymyxin B to plasma proteins was determined via ultrafiltration. Polymyxins have a tendency to non-specifically bind to different kinds of material, including ultrafiltration filters. Thus, to correct for polymyxin B loss on the filter, an experiment was performed in which ultrafiltrated (UF) phosphate buffer was spiked with multiple polymyxin B concentrations (ranging from 0.75 to 8 mg/L) and subsequently concentrations were measured. […] Using this relationship, the non-specific binding (NSB) for each measured polymyxin B UF concentration was calculated. Correction for the measured polymyxin B UF concentration using this NSB value was according to the following formula: polymyxin B UF Corrected Concentration = Measured polymyxin B UF Concentration × (1−NSB).\nPolymyxin B concentrations in plasma, BAL and ultrafiltrates were determined by a validated LC-MS/MS method,[18] with a lower limit of quantification (LOQ) of 0.2 mg/L for plasma and 0.05 mg/L for BAL fluid and ultrafiltrates. […] The residues were dissolved in 0.1 mL of 0.1% formic acid in water and analysed by LC-MS/MS. […] Polymyxin B was analysed on an XBridge C18 column (5 µm, 2.1 × 150 mm; Waters). […] Calibration curves of polymyxin B ranged from 0.1 to 10 mg/L for plasma and ultrafiltrates, and were quantified with a quadratic regression mode. […]"}, "[1]": {"conditions": "two E. coli isolates in which 1 log kill was found"}}, "note": "Structures can show the parent of a compound that is named as a salt. Bridge positions count the residues as written; N and C are the ends. Square brackets hold non-standard residues; d marks the D form. Peptide text beside a SMILES is read from it. * marks the point of attachment. X1 = CC[C@H](C)CCCCC(=O)*; Dab = NCC[C@H](N)C(=O)O"}
{"molecule": "CC[C@H](C)CCCCC(=O)N[C@@H](CCN)C(=O)N[C@H](C(=O)N[C@@H](CCN)C(=O)N[C@H]1CCNC(=O)[C@H]([C@@H](C)O)NC(=O)[C@H](CCN)NC(=O)[C@H](CCN)NC(=O)[C@H](CC(C)C)NC(=O)[C@@H](Cc2ccccc2)NC(=O)[C@H](CCN)NC1=O)[C@@H](C)O", "note": "[polymyxin B, Polymyxin B sulphate salt] (X1-[Dab]T[Dab][Dab][Dab][dF]L[Dab][Dab]T; lactam 4-C)", "values": [{"measurement": "Isolates in which 1 log kill was found", "setting": "E. coli isolates; E. coli isolates, mouse thigh infection", "result": "2/4"}, {"measurement": "Target value of fAUC/MIC, static effect, average", "setting": "E. coli isolates; average of four E. coli isolates, mouse thigh infection, q6h", "result": 64.3}, {"measurement": "Target value of fAUC/MIC, static effect, median", "setting": "E. coli isolates; median of four E. coli isolates, mouse thigh infection, q6h", "result": 63.5}, {"measurement": "Target value of fAUC/MIC, static effect, range", "setting": "E. coli isolates; range over four E. coli isolates, mouse thigh infection, q6h", "result": "27.5–102.6"}, {"measurement": "fAUC/MIC for 1 log kill, median", "setting": "E. coli isolates; [1]", "result": 50.6}, {"measurement": "fAUC/MIC for 1 log kill, range", "setting": "E. coli isolates; [1]", "result": "46.8–54.5"}, {"measurement": "%fu (percent fraction unbound)", "setting": "plasma proteins", "result": "20% ± 4.0%"}]}
